Assay results reported in patent US20090010873A1, “Methods of Cell Therapy, Neurogenesis and Oligodendrogenesis” (YEDA RESEARCH AND DEVELOPMENT CO. LTD., priority 2004, published 2009).

System: aNPCs
Experiment: Neuronal differentiation of aNPCs with CD4+ T cells, T cell-conditioned medium or cytokines
Assay type: cell-based, mouse
Conditions: aNPCs cultured 5 days with the cytokine
Procedure: (xxxiii) Co-culturing of neural progenitor cells and T cells. CD4+ T cells were purified from lymph nodes of 8-week-old C57B16/J mice as previously described (Kipnis et al., 2004). T cells were activated in RPMI medium supplemented with L-glutamine (2 mM), 2-mercaptoethanol (5×10^−5 M), sodium pyruvate (1 mM), penicillin (100 IU/ml), streptomycin (100 μg/ml), nonessential amino acids (1 ml/100 ml), and autologous serum 2% (v/v) in the presence of mouse recombinant IL-2 (mrIL-2; 5 ng/ml) and soluble anti-CD28 and anti-CD3 antibodies (1 ng/ml). T cells were co-cultured (5×10^4 cells/well) with aNPCs (5×10^4 cells/well) for 5 d on cover slips coated with Matrigel (BD Biosciences) in 24-well plates. The cultures were then fixed with 2.5% paraformaldehyde in PBS for 30 min at room temperature and stained for neuronal markers.
We therefore sought to determine whether direct interaction between aNPCs and T cells would also result in an altered pattern of aNPC differentiation. To address this question, we activated CD4+ T cells in vitro by a cognate protocol (with anti-CD3 antibodies, anti-CD28 antibodies, and IL-2) for 24 h and then allowed their activation to continue in co-cultures with aNPCs in a transwell culture system. […] After 5 days in culture the aNPCs in the lower chamber were fixed and analyzed for the appearance of newly formed neurons. […]

Substance: IFN-γ
- concentration (as low as) inducing an increase in β-III tubulin expression: 1 ng/mL
